Target: T1, C-C chemokine receptor type 6 (Homo sapiens, UniProt P51684)
T1 sequence (P51684 whole entry): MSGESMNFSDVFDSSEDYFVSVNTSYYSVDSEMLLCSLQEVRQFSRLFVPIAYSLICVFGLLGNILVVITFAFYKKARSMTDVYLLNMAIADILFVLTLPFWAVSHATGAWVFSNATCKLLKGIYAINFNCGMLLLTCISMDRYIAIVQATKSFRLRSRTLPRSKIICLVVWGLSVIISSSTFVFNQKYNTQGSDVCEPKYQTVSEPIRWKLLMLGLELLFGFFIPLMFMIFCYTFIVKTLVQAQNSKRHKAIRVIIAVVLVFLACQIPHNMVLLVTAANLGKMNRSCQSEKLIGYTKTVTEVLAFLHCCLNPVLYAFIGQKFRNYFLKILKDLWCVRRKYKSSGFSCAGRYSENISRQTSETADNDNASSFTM
Assay: antagonism of CCR6 beta-arrestin recruitment – cell-based, luminescent beta-arrestin readout, dose response (AID 504728)

Row | SMILES | IC50 [µM]
1 | Cc1cc(C)nc(NNC=C2C(=O)CC(c3ccc(F)cc3)CC2=O)n1 (centres undefined) | > 66.6
2 | COc1ccc(-n2c(O)c(CN=Nc3nc(C)cc(C)n3)c3ccccc3c2=O)cc1OC [SMR000385482] | 0.594
3 | CC(C)(C)C1CCC(=NNC(=S)NCc2ccccc2)CC1 (centres undefined) [SMR000377499] | > 66.6
4 | O=C1C(/C=N/c2ccc(N3CCOCC3)cc2)=CC(Cc2ccccc2)C=C1[N+](=O)[O-] (centres undefined) [SMR000231104] | > 66.6
5 | CCCC1CCC(=NNC(=S)NCCc2ccccc2)CC1 (centres undefined) [SMR000347544] | > 66.6
6 | O=C1C=CC([N+](=O)[O-])=CC1CN=Nc1ccccn1 (centres undefined) [MLS000585015] | > 66.6
7 | C=CCSC(N)=NN=CC1C=C(Br)C=C([N+](=O)[O-])C1=O (centres undefined) [N''-[[(E)-(3-bromo-5-nitro-6-oxo-1-cyclohexa-2,4-dienylidene)methyl]amino]carbamimidothioic acid prop-2-enyl ester] | > 66.6
8 | Cc1cc(N=NCc2ccc(F)cc2)nc(-n2nc(C)cc2C)n1 [SMR000426945] | > 66.6
9 | COC1=CC=CC(CN=Nc2nc(Nc3ccc([N+](=O)[O-])cc3)nc(N3CCCC3)n2)C1=O (centres undefined) [2-hydroxy-3-methoxybenzaldehyde {4-[(4-nitrophenyl)amino]-6-pyrrolidin-1-yl-1,3,5-triazin-2-yl}hydrazone] | 1.64
10 | O=Nc1c(C2C(=O)Nc3cc(Br)ccc32)[nH]c2ccccc12 (centres undefined) [6-bromoindirubin-3-oxime] | > 66.6
11 | N#CC(=C1C=CC(N=O)C(Cl)=C1)c1ccc(Cl)cc1 (centres undefined) [SMR001570423] | > 66.6
12 | O=C1C([N+](=O)[O-])=CC(Cl)=CC1CN=Nc1ccccn1 (centres undefined) [MLS000539830] | > 66.6
13 | CN1C(=O)C(C2CC(c3ccc(Cl)cc3)N=N2)C(=O)N(C)C1=O (centres undefined) [SMR000439471] | 14.9
14 | C/C=C(\C)C(=O)OC1[C@H](OC(C)=O)C2(CO)C(CC1(C)C)C1=CCC3C4(C)CCC(O[C@@H]5O[C@H](C(=O)O)[C@@H](O[C@@H]6O[C@H](CO)[C@@H](O)[C@H](O)[C@H]6O)[C@H](O)[C@H]5O[C@H]5O[C@H](CO)[C@@H](O)[C@H](O)[C@H]5O)[C@](C)(CO)C4CCC3(C)[C@]1(C)C[C@H]2O (some centres undefined) [MLS002695979] | 16.4
15 | COc1cccc(CN=Nc2nc(Nc3ccccc3)nc(-n3nc(C)cc3C)n2)c1O [(6E)-6-[[2-[4-(3,5-dimethylpyrazol-1-yl)-6-phenylazanyl-1,3,5-triazin-2-yl]hydrazinyl]methylidene]-2-methoxy-cyclohexa-2,4-dien-1-one] | > 66.6
16 | O=C1Nc2ccc([N+](=O)[O-])cc2/C1=N/NC(=O)c1cc(-c2ccccc2Cl)nc2ccccc12 [2-(2-chlorophenyl)-N'-(2-keto-5-nitro-indol-3-yl)cinchoninohydrazide] | > 66.6
17 | CC(NO)C(=O)C(=CN1CCCCC1)CN1CCCCC1 (centres undefined) | > 66.6
18 | O=C1C([N+](=O)[O-])=CC=CC1CN=Nc1ccc2ccccc2n1 (centres undefined) [(6E)-2-nitro-6-[(2-quinolin-2-ylhydrazinyl)methylidene]cyclohexa-2,4-dien-1-one] | > 66.6
19 | CN(C)c1nc(N=NCc2ccccc2O)nc(Nc2ccc(F)cc2)n1 [(6E)-6-[[2-[4-(dimethylamino)-6-(4-fluoroanilino)-1,3,5-triazin-2-yl]hydrazinyl]methylidene]cyclohexa-2,4-dien-1-one] | > 66.6
